Reference: patent publication US20170217982A1, “Compound isolated from Pseudolysimachion rotundum var. subintegrum, the composition comprising the same for treating allergic disease, inflammatory disease, asthma or chronic obstructive pulmonary disease and the use thereof” (YUNGJIN PHARMACEUTICAL CO., LTD, priority 2014, published 2017)

Test system: COPD induced mice
Test: Anti-COPD effect in cigarette smoke + LPS COPD mouse model
Assay type: in vivo, C57BL/6N mouse
Conditions: 10 mg/kg p.o.
Protocol: In order to determine the anti-COPD effect of inventive compounds in COPD animal model, following test was performed by using COPD induced mice as disclosed in the literature (Bhaysar, T. et al., J. Chronic Obstr. […]. Dis., 2008, 3, 477-481). Specific pathogen-free male C57BL/6N mouse (about 22-24 g), aged 6 weeks, which were routinely screened serologically for relevant respiratory pathogens, were purchased from Koatech Co. (koatech.co.kr, Seoul, Korea) and bred allowing to access freely to feed (antibiotic free, Samyang Oil & Feed Corp., Korea) and water in breeding room controlling the temperature of 22±2° C., and humidity of 55±15% at the light-dark cycle for 12 hours and acclimated with the experimental environment for 1 week. 2 kinds of test samples, […] ingredient: Roflumilast, 10 mg/kg) were dissolved in 0.5% sodium carboxymethyl cellulose ([…], Sigma-Aldrich, USA) and used as test samples. KS534, and Rolflumilast (ROF 11-492, HETERO, India) were orally administrated to the mice, 1 hour before prior the intratracheal instillation (i.t.). 3R4F Kentuchy Reference Cigarettes ([…], USA) was used as a standard cigarette for generating a cigarette smoke. The cigarette containing 9.4 mg of tar, 11 mg of TPM (total particle matter) and 12 mg of carbon monooxide per piece, was used after harmonizing with the temperature of 22±1° C. and humidity of 60±2% after opening for 48-72 hrs. The exposure of cigarette smoke was performed by using a cigarette smoke generator (DBL Co. Ltd., dhbiolink.com, Korea). The mice were divided into five groups: normal (NC), COPD (cigarette smoke with LPS intranasal instillation), Rof (10 mg/kg of roflumilast, p.o.+cigarette smoke with LPS intranasal instillation), and KS534-15 and 30 (15 mg/kg and 30 mg/kg of KS534, p.o.+cigarette smoke with LPS instillation, respectively). Exposure of cigarette smoke (one puff/min, 35 ml puff volume over 2 s, every 60 s, 8 cigarettes per day) was conducted using a cigarette smoke generator. The mice received 1 h of cigarette smoke exposure in an exposure chamber (50 cm×30 cm×30 cm) for 3 days. Roflumilast and piscroside C were administered to mice by oral lavage 1 h before cigarette smoke exposure for 3 days. LPS was intranasally instilled ([…] dissolved in 50 μL distilled water) under anesthesia 1 h after the final exposure to cigarette smoke. After the end of experiment, the blood, BALF, and pneumonocyte of each rat were isolated and collected to test. After finishing the experiment, rats were anaesthetized with Zoleti150 (3VX9, Virbac, France, p.o) and the blood was delivered through caudal veins. In order to isolate BALF from lung, the bronchus of right lung was ligated with suture and then performed to tracheostomy. IV-use catheter (16 GA, 3S-Cath, Dukwoo, Korea) was put into the bronchus, and both of bronchus and catheter (16 GA, 3S-Cath, Dukwoo, Korea) were fixed with suture. The injector containing 1 ml of DPBS 0.7 (Dubecco's phosphate-buffered saline, Invitrogen, USA) was connected thereto and DPBS was forced to circulate three times to isolate BALF. The right lung ligated with suture was isolated, fixed with 10% neutral formalin solution, and the remaining lung tissue was reserved in refrigerator at -70° C. The isolated BALF was centrifuged for 15 mins at 1500 rpm to prepare cell pellet and the supernatant was reserved in refrigerator at -70° C. for cytokine analysis. The cell pellet was suspended in DPBS, and the cell was attached to a slide glass using by cytospin centrifuge (CS03270047, Hanil, Korea). Diff-Quik staining (ZS1003, Sysmex, Japan) was performed and the cell was observed by optical microscopy (DM1000, Leica, German) to count the number of immunocyte in each test sample. The level of ROS in BALF isolated from the mice was determined by DCF-DA (dihydrodo chloro fluoresce indiacetate, 35854, Sigma-Aldrich, USA) and the final concentration of DCF-DA was adjusted to 20 μm in 200 μL to incubate 30 mins. […]

O=C(Nc1c(Cl)cncc1Cl)c1ccc(OC(F)F)c(OCC2CC2)c1 [Roflumilast, reference compound]
level of proteins in BALF compared with COPD induced group (COPD mice): significant reduction | reduced level of ROS in BALF comparing with COPD induced group (COPD mice): about 22.2% | reduced level of neutrophils in BALF comparing with COPD induced group (COPD mice): about 21.1% | invasion of the inflamed cells in lung tissue (histology) (COPD mice (FIG. 14)): significantly reduced | level of IL-6 in BALF compared with COPD induced group (COPD mice, ELISA): significant reduction | level of TNF-alpha in BALF compared with COPD induced group (COPD mice, ELISA): significant reduction
